This is an account of results in patent US5439940A, “Benz[e]indene derivatives” (priority 1992, dated 1995).

Data set [1] relates to carrageen-induced paw volume. The data set can be described thus: Antiinflammatory effect (carrageen paw, Winter et al.). In kind it is in vivo, rat (Wistar). Conditions: po, read-out: Antiinflammatory effect ID30. As for the experimental part:
The antiinflammatory effect was investigated on Wistar rats weighing 150-180 g according to the method of Winter et al. 0.1 ml of a 1 percent carrageen suspension was injected subcutaneously into the plantar region of one of the hind paws. The animals were fasted for 12 hours and received drinking water ad libitum. One hour before treatment with the test compound the rats were hydrated orally with 30 ml/kg of tap water. The test compounds and the vehicle were administered p.o. in a volume of 10 ml/kg, then 1 hour later carrageen was applied. The volume of the treated paw was measured by mercury-plethysmometer before and 3 hours after injection in such a way that displacement of the liquid arising from the volume alteration was indicated on a millimeter scale. […] A., Risley, E. A., Nuss, G. W.: Proc. Soc.

Data set [2] concerns acetic acid writhing reactions. Description: Analgesic effect (acetic acid writhing, Newbould). Conditions: Mus musculus, 1 h, read-out: Analgesic effect ID50. In kind it is in vivo, mouse (NMRI). As to the method: The characteristic "writhing reactions" were counted for a period of 5 minutes, starting from the fifth minute after challenge. […] Each group of animals consisted of at least 10 mice. […]
Background: In writhing tests, fewer writhes than in controls are read as antinociception.

Data set [3] is described as follows: Acute toxicity on mice (oral LD50). The note with it: mouse, in vivo, 7 days observation, maximal dose 1000 mg/kg. As for the experimental part:
Mice belonging to the NMRI strain (body weight 20-25 g, both male and female) were used, 6 to 10 animals for each dose. The test compound was administered orally in a volume of 20 ml/kg. The applied maximal dose was 1000 mg/kg. […] The mice were kept in a plastic cage at room temperature. The animals got tap water and standard mouse fodder ad libitum. The toxicity data were determined by the aid of the method of Litchfield and Wilcoxon [Litchfield, J. T., Wilcoxon, F. W.: J. Pharmacol. Exp. Ther., 96, 99 (1949)].

For another data set, the system named is nervus ischiadicus. Description: Local analgesic effect (Truant d'Amato). The note with it: 0.2 ml injected around nervus ischiadicus. The class given is in vivo. As to the method:
The test was carried out according to the method of Truant d'Amato. 0.2 ml of test material was injected around the nervus ischiadicus in the middle of femur with a needle of 1 cm length. The criterion of analgesic effect was the lack of the motoric control of foot muscles. The duration of effect was registered and the 50 percentile effective concentration (EC50) was calculated on the basis of the dose-effect curve. Lidocain was used as reference substance Truant d'Amato, A. P., Wiedling, S.: Acta Chir. Scand., 116, 351 (1958)].

For data set [4], the system named is experimental coronary insufficiency. The data set can be described thus: Antianginal effect (glanduitrine-induced coronary insufficiency, Nieschultz). In kind it is in vivo, rat (male). Conditions: rat, glanduitrine 4 NE/kg i.v., T-wave; for inhibition in vivo at 2 mg/kg: Rat2, iv, read-out: Inhibition in a dose of 2 mg/kg. As to the method: The test was carried out on male rats weighing 180-220 g. The animals were narcotized with the aid of chloralose-urethane. ECG was registered by means of needle electrodes in standard II output. Antianginal effect was tested according to the method of Nieschultz. Experimental coronary insufficiency was induced by administering glanduitrine (4 NE/kg i.v.).

For a further data set, the system named is nicotine spasm. The data set can be described thus: Anticonvulsive activity: inhibition of nicotine spasm and lethality. The class given is in vivo. The note with it: Mus musculus, 1 h; mice, oral, one hour before nicotine 1.4 mg/kg i.v. As for the experimental part:
The inhibition of nicotine spasm and lethality was examined on mice according to the method of Stone. One hour after the oral treatment a dosage of 1.4 mg/kg of nicotine is injected intravenously, and the spasm developed as well as the lethality within 1 hour were recorded at both the test and control groups. [Stone, C. C., Mecklenburg, K. L., Torchiana, M. L.: Arch. Int. Pharmacodyn., 117, 419 (1958)].
The ED50 values were determined according to the method of Litchfield and Wilcoxon.

A further data set relates to hexobarbital narcosis. Description: Hexobarbital narcosis potentiating effect on mice. In kind it is in vivo, mouse. As to the method: The hexobarbital narcosis potentiating effect was examined on mice. Groups consisting of 6 animals were used for each dose. The animals were treated orally with the test compound, whereby sleeping was induced 1 hour later by administering a 40 mg/kg i.v. dose of hexobarbital both to the test and control groups. […] ED50 values were calculated from the thus-transformed data [Kaergaard Nielsen C. et al., Arch. Int. Pharmacodyn. 2, 170 (1967)].

The test system of the next data set is shocks tolerated. The data set can be described thus: Anxiolytic effect (Vogel et al.). The class given is in vivo, rat (male Wistar). As for the experimental part: The anxiolytic effect was tested by using the method of Vogel et al. Male Wistar rats of 160-180 g bodyweight were kept free of food and drinking water for 24 and 48 hours, respectively. Test and carrier substances were administered intraperitoneally two hours before testing. Animals within the experimental chamber were provided with drinking water through an inserted tube. After the animals' each twenty lapping for water the device emitted a 2 mA intensity electric shock through the drinking tube. During 5 minutes the shocks tolerated by the animals in order to quench their thirst were counted. The effect of treatment was expressed as the % increase of the tolerated shocks. The minimum effective dose (MED) was determined for each test compound [Voqel, J. R., Beer, B., Clody, D. E.: Psychopharmacologia (Berl.) 21, 1 (1971)].

The next data set concerns spontaneous motility. Description: Spontaneous motility inhibiting activity (Dews equipment). Conditions: Mus musculus, 0.5 h; oral, beam interruptions within 30 minutes; read-out: Motility inhibiting activity ID50. In kind it is in vivo. As for the experimental part:
The spontaneous motility inhibiting activity was examined according to the method of Borsy et al. Groups consisting of 3 mice each were treated orally with different doses of the compounds to be tested, then the test animals were placed in a Dews equipment. In this equipment the number of interruptions of infrared beam within 30 minutes was counted. […] [Borsy, J., Csanyi, E., Lazar, I.: Arch. Int.. Pharmacodyn. 124, 1 (1960)].

For data set [5], the system named is learned conditioned avoidance reflex. Description: Antipsychotic effect: inhibition of conditioned avoidance reflex (shuttle box). The class given is in vivo, rat (male Wistar). As for the experimental part: The antipsychotic (neuroleptic) effect was measured by the inhibition of the learned conditioned avoidance reflex. The male Wistar rats used for the study were of 120-150 g bodyweight at the commencement of learning. […] In response to a suitable warning stimulus, in order to avoid the punishing (unconditioned) stimulus, animals within the box passed through the gate from one part over the other. The warning, i.e. conditioned stimulus (CS), a white light (1 Hz) blinking for 15 seconds, was applied at the place of the actual animal existence. The unconditioned stimulus (US), in form of 0.6 mA intensity electric shock, was randomly applied to the paw during the last 5 seconds of the conditioned stimulus. Animal's movement during the CS and US from one part of the box over the other, was defined as avoidance and escape responses, respectively. Both responses ceased the actual stimulus and stopped the trial. The time elapsed until the next trial (intertrial interval, ITI) was 15 seconds. While one experiment was carried out daily, an experiment consisted of 80 trials. Learning efficiency was expressed as percentage of the successful to the total avoidances. […] Dosing was carried out once a week, one hour before the measurement in the shuttle box.

The next data set relates to catalepsy. The data set can be described thus: Catalepsy. Conditions: rat. The class given is in vivo, rat (Wistar). As to the method: The extrapyramidal syndrome, the most important side effect limiting the application of the neuroleptic drugs in man, can be produced in experimental animals in the form of catalepsy. Our experiments in 150-160 g Wistar rats were performed according to Morpurgo. The catalepsy, appearing 60 minutes after dosing, was scored as follows. Both forelegs of each animal were put for 10 seconds onto a rubber stopper of 3 cm height, then for additional 10 seconds onto a same stopper of 9 cm height. […] The procedure was repeated in each 30 minutes during four hours, obtaining scores proportional to the degree of the catalepsy. Results were used to calculate the minimum effective dose [MED, the lowest dose resulting statistically significant alteration, c.f.: Morpurgo, C.: Arch. Int.

Where [6] appears, read: rat, p.o., 1 hour before carrageen, paw volume 3 hours after.
Where [7] appears, read: mice, 0.75% acetic acid one hour after treatment.

Read-outs that look alike come from different tables or passages of the source.

Consider `CC(=O)Oc1ccccc1C(=O)O` [Acetylsalicylic acid, reference compound], for which the ED30 in data set [1] (Rattus norvegicus, 3 h) came out at 62 mg/kg. In data set [2], the ED50 was determined as 261 mg/kg.

For `CC(C)N(CCON=C1CCc2c1ccc1ccccc21)C(C)C` [Example 4, 3-[2-(N-1-Methylethyl-2-propylamino)-ethoxyimino]-2,3-dihydro-1H-benz[e]indene], the 50% lethal dose (LD50) at 168 h in data set [3] was 600 mg/kg. Also, the “Local analgesic effect EC50” value in the data set on nervus ischiadicus is 0.18%. Besides, the inhibition in vivo at 2 mg/kg in [4] was determined as 100%. The ED50 worked out at 0.19 mg/kg in data set [4] (iv) and 4 mg/kg with nicotine spasm.

For `OC(CNC1CC1)CON=C1CCc2c1ccc1ccccc21` (stereo not drawn) [Example 17, 3-[3-(Cyclopropylamino)-2-hydroxypropoxyimino]-2,3-dihydro-1H-benz[e]indene], the ED50 with hexobarbital narcosis (Mus musculus, oral, 1 hour before hexobarbital 40 mg/kg i.v., sleeping time >2.5 times control, read-out: ED50 hexobarbital narcosis potentiation) was 11 mg/kg; in [2] (setting [7]), 14 mg/kg; in the data set with spontaneous motility, 6 mg/kg; in data set [5] (1 h, rat, dosing one hour before measurement, read-out: Conditioned reflex ID50), 26.3 mg/kg. For the same compound, the “tranquillo-sedative activity rank (in words)” value in the data set with hexobarbital narcosis (compared within the structural group) is given as “the most active member in the structural group”. In addition, in data set [3], the LD50 at 168 h turned out to be 660 mg/kg. Moreover, the ED30 in [1] (setting [6]) came to 40 mg/kg. The minimal effective dose with shocks tolerated (ip, 2 h, rat, intraperitoneal, two hours before testing, read-out: Anxiolytic effect MED) is 0.1 mg/kg. Besides, the “anxiolytic effect compared with Chlordiazepoxide and Meprobamate (in words)” value with shocks tolerated (rat) is “superior to the reference substances by orders of magnitude”. Further, in the data set on shocks tolerated (smaller doses), the “character in smaller doses (in words)” value is “anxiolytic”. The inhibition in vivo at 2 mg/kg in [4] worked out at 50%. For the same compound, the “character when administered in higher doses (in words)” value in data set [5] (higher doses) was “neuroleptic”. Moreover, the “antipsychotic effect compared with reference substances (in words)” value in data set [5] (rat) was “superior to Thioridazine and inferior to Chlorpromazine”. Also, in the data set on catalepsy, the “Therapeutic index (Catalepsy MED / Conditioned Reflex ID50)” value came to 3.8. For the same compound, the “Catalepsy MED” value in the data set on catalepsy (scored from 60 minutes after dosing, four hours) is reported as 100 mg/kg.

`CC(=O)Nc1ccc(O)cc1` [Paracetamol, reference compound]: the ED30 in data set [1] (setting [6]) amounted to 195 mg/kg. Moreover, the ED50 in [2] (setting [7]) was determined as 421 mg/kg.

The term LD50 denotes the dose expected to kill half of the subjects tested. A low value points to a more toxic substance.
